# Assay results from PubChem BioAssay (NCI).
#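 Dose response: 5 concentrations. Exposure: 48 h. Format: 96-well plates. Endpoint: linear interpolation; highest concentration if not reached. GI50 = concentration required for 50% inhibition of growth. At the TGI there is no net growth.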
# Experiments:
# Assay in all cases: DTP human tumour cell line panel, 48 h
# [1] = test system: 786-0 renal
# [2] = test system: A498 renal
# [3] = test system: A549 NSCLC
# [4] = test system: ACHN renal
# [5] = test system: BT-549 breast
# [6] = test system: CAKI-1 renal
# [7] = test system: CCRF-CEM leukemia
# [8] = test system: COLO 205 colon
# [9] = test system: DU-145 prostate
# [10] = test system: HCC-2998 colon
# [11] = test system: HCT-116 colon
# [12] = test system: HCT-15 colon
# [13] = test system: HL-60(TB) leukemia
# [14] = test system: HOP-62 NSCLC
# [15] = test system: HOP-92 NSCLC
# [16] = test system: HS 578T breast
# [17] = test system: HT29 colon
# [18] = test system: IGROV1 ovarian
# [19] = test system: K-562 leukemia
# [20] = test system: KM12 colon
# [21] = test system: LOX IMVI melanoma
# [22] = test system: M14 melanoma
# [23] = test system: MALME-3M melanoma
# [24] = test system: MCF7 breast
# [25] = test system: MDA-MB-231 breast
# [26] = test system: MDA-MB-435
# [27] = test system: MOLT-4 leukemia
# [28] = test system: NCI-H226 lung
# [29] = test system: NCI-H23 lung
# [30] = test system: NCI-H460 lung
# [31] = test system: NCI-H522 lung
# [32] = test system: NCI/ADR-RES ovarian
# [33] = test system: OVCAR-3 ovarian
# [34] = test system: OVCAR-4 ovarian
# [35] = test system: OVCAR-5 ovarian
# [36] = test system: OVCAR-8 ovarian
# [37] = test system: PC-3 prostate
# [38] = test system: RPMI-8226 leukemia
# [39] = test system: RXF 393 renal
# [40] = test system: SF-268 CNS
# [41] = test system: SF-295 CNS
# [42] = test system: SF-539 CNS
# [43] = test system: SK-MEL-2 melanoma
# [44] = test system: SK-MEL-28 melanoma
# [45] = test system: SK-MEL-5 melanoma
# [46] = test system: SK-OV-3 ovarian
# [47] = test system: SN12C renal
# [48] = test system: SNB-19 CNS
# [49] = test system: SNB-75 CNS
# [50] = test system: SR leukemia
# [51] = test system: SW-620 colon
# [52] = test system: T-47D breast
# [53] = test system: TK-10 renal
# [54] = test system: U251 CNS
# [55] = test system: UACC-257 melanoma
# [56] = test system: UACC-62 melanoma
# [57] = test system: UO-31 renal
# [58] = test system: EKVX NSCLC
compound,measurement,setting,value
Cn1cc(C2=C(c3cn(C)c4c([N+](=O)[O-])cccc34)C(=O)NC2=O)c2ccccc21,GI50,[1],> 25 µM
same,TGI,[1],> 25 µM
same,GI50,[2],> 25000 nM
same,TGI,[2],> 25 µM
same,GI50,[3],> 25 µM
same,TGI,[3],> 25 µM
same,GI50,[4],> 25000 nM
same,TGI,[4],> 25 µM
same,GI50,[5],> 25 µM
same,TGI,[5],> 25 µM
same,GI50,[6],> 25000 nM
same,TGI,[6],> 25 µM
same,GI50,[7],> 25 µM
same,TGI,[7],> 25 µM
same,GI50,[8],> 25000 nM
same,TGI,[8],> 25 µM
same,GI50,[9],> 25 µM
same,TGI,[9],> 25 µM
same,GI50,[10],> 25 µM
same,TGI,[10],> 25 µM
same,GI50,[11],> 25000 nM
same,TGI,[11],> 25 µM
same,GI50,[12],> 25000 nM
same,TGI,[12],> 25 µM
same,GI50,[13],> 25 µM
same,TGI,[13],> 25 µM
same,GI50,[14],> 25 µM
same,TGI,[14],> 25 µM
same,GI50,[15],> 25 µM
same,TGI,[15],> 25 µM
same,GI50,[16],> 25000 nM
same,TGI,[16],> 25 µM
same,GI50,[17],> 25000 nM
same,TGI,[17],> 25 µM
same,GI50,[18],> 25 µM
same,TGI,[18],> 25 µM
same,GI50,[19],> 25 µM
same,TGI,[19],> 25 µM
same,GI50,[20],> 25 µM
same,TGI,[20],> 25 µM
same,GI50,[21],> 25 µM
same,TGI,[21],> 25 µM
same,GI50,[22],> 25 µM
same,TGI,[22],> 25 µM
same,GI50,[23],> 25 µM
same,TGI,[23],> 25 µM
same,GI50,[24],> 25000 nM
same,TGI,[24],> 25 µM
same,GI50,[25],> 25 µM
same,TGI,[25],> 25 µM
same,GI50,[26],> 25000 nM
same,TGI,[26],> 25 µM
same,GI50,[27],> 25 µM
same,TGI,[27],> 25 µM
same,GI50,[28],> 25 µM
same,TGI,[28],> 25 µM
same,GI50,[29],> 25 µM
same,TGI,[29],> 25 µM
same,GI50,[30],> 25000 nM
same,TGI,[30],> 25 µM
same,GI50,[31],> 25000 nM
same,TGI,[31],> 25 µM
same,GI50,[32],> 25 µM
same,TGI,[32],> 25 µM
same,GI50,[33],> 25000 nM
same,TGI,[33],> 25 µM
same,GI50,[34],> 25 µM
same,TGI,[34],> 25 µM
same,GI50,[35],> 25 µM
same,TGI,[35],> 25 µM
same,GI50,[36],> 25 µM
same,TGI,[36],> 25 µM
same,GI50,[37],> 25 µM
same,TGI,[37],> 25 µM
same,GI50,[38],> 25 µM
same,TGI,[38],> 25 µM
same,GI50,[39],> 25000 nM
same,TGI,[39],> 25 µM
same,GI50,[40],> 25000 nM
same,TGI,[40],> 25 µM
same,GI50,[41],> 25000 nM
same,TGI,[41],> 25 µM
same,GI50,[42],> 25000 nM
same,TGI,[42],> 25 µM
same,GI50,[43],> 25000 nM
same,TGI,[43],> 25 µM
same,GI50,[44],> 25000 nM
same,TGI,[44],> 25 µM
same,GI50,[45],> 25 µM
same,TGI,[45],> 25 µM
same,GI50,[46],> 25 µM
same,TGI,[46],> 25 µM
same,GI50,[47],> 25000 nM
same,TGI,[47],> 25 µM
same,GI50,[48],> 25 µM
same,TGI,[48],> 25 µM
same,GI50,[49],> 25000 nM
same,TGI,[49],> 25 µM
same,GI50,[50],> 25 µM
same,TGI,[50],> 25 µM
same,GI50,[51],> 25000 nM
same,TGI,[51],> 25 µM
same,GI50,[52],> 25 µM
same,TGI,[52],> 25 µM
same,GI50,[53],> 25 µM
same,TGI,[53],> 25 µM
same,GI50,[54],> 25000 nM
same,TGI,[54],> 25 µM
same,GI50,[55],> 25 µM
same,TGI,[55],> 25 µM
same,GI50,[56],> 25000 nM
same,TGI,[56],> 25 µM
same,GI50,[57],> 25000 nM
same,TGI,[57],> 25 µM
CCCCCCCCCCCCCC1=NCCN1CCO,GI50,[1],5.17 µM
same,TGI,[1],11.2 µM
same,GI50,[2],2750 nM
same,TGI,[2],14.6 µM
same,GI50,[3],3.52 µM
same,TGI,[3],> 100 µM
same,GI50,[4],2040 nM
same,TGI,[4],4.68 µM
same,GI50,[5],13.4 µM
same,TGI,[5],31.8 µM
same,GI50,[6],2340 nM
same,TGI,[6],7.27 µM
same,GI50,[7],10.5 µM
same,TGI,[7],> 100 µM
same,GI50,[8],2110 nM
same,TGI,[8],3.97 µM
same,GI50,[9],3.88 µM
same,TGI,[9],15.7 µM
same,GI50,[58],8.35 µM
same,TGI,[58],28.4 µM
same,GI50,[10],4.03 µM
same,TGI,[10],16.5 µM
same,GI50,[11],2300 nM
same,TGI,[11],5.27 µM
same,GI50,[12],1920 nM
same,TGI,[12],4.77 µM
same,GI50,[13],3.11 µM
same,TGI,[13],> 100 µM
same,GI50,[14],5.62 µM
same,TGI,[14],12.7 µM
same,GI50,[15],3.65 µM
same,TGI,[15],23.6 µM
same,GI50,[16],2660 nM
same,TGI,[16],6.54 µM
same,GI50,[17],2810 nM
same,TGI,[17],> 28.6 µM
same,GI50,[18],4.46 µM
same,TGI,[18],> 100 µM
same,GI50,[19],3.04 µM
same,TGI,[19],> 100 µM
same,GI50,[20],3 µM
same,TGI,[20],9 µM
same,GI50,[22],3.68 µM
same,TGI,[22],10.9 µM
same,GI50,[23],12.7 µM
same,TGI,[23],30.5 µM
same,GI50,[24],2400 nM
same,TGI,[24],6.89 µM
same,GI50,[25],3.04 µM
same,TGI,[25],8.28 µM
same,GI50,[26],2970 nM
same,TGI,[26],9.07 µM
same,GI50,[27],4.11 µM
same,TGI,[27],> 100 µM
same,GI50,[28],17.5 µM
same,TGI,[28],41.2 µM
same,GI50,[29],8.61 µM
same,TGI,[29],31.7 µM
same,GI50,[30],2130 nM
same,TGI,[30],4.63 µM
same,GI50,[31],2520 nM
same,TGI,[31],6.13 µM
same,GI50,[32],5 µM
same,TGI,[32],21.2 µM
same,GI50,[33],2730 nM
same,TGI,[33],6.48 µM
same,GI50,[34],7.23 µM
same,TGI,[34],39.8 µM
same,GI50,[35],5.47 µM
same,TGI,[35],18.3 µM
same,GI50,[36],3.4 µM
same,TGI,[36],> 28.1 µM
same,GI50,[37],3.37 µM
same,TGI,[37],> 34.5 µM
same,GI50,[38],6.5 µM
same,TGI,[38],> 81.5 µM
same,GI50,[39],2720 nM
same,TGI,[39],7.43 µM
same,GI50,[40],2830 nM
same,TGI,[40],8.12 µM
same,GI50,[41],2190 nM
same,TGI,[41],6.18 µM
same,GI50,[42],1950 nM
same,TGI,[42],3.94 µM
same,GI50,[43],2860 nM
same,TGI,[43],9.01 µM
same,GI50,[44],1990 nM
same,TGI,[44],4.02 µM
same,GI50,[45],3.26 µM
same,TGI,[45],11.2 µM
same,GI50,[46],7.04 µM
same,TGI,[46],18.3 µM
same,GI50,[47],2570 nM
same,TGI,[47],6.47 µM
same,GI50,[48],9.59 µM
same,TGI,[48],26.8 µM
same,GI50,[49],2300 nM
same,TGI,[49],8.16 µM
same,GI50,[50],3.75 µM
same,TGI,[50],> 100 µM
same,GI50,[51],2250 nM
same,TGI,[51],5.22 µM
same,GI50,[52],4.57 µM
same,TGI,[52],13.1 µM
same,GI50,[53],4.75 µM
same,TGI,[53],12.7 µM
same,GI50,[54],2100 nM
same,TGI,[54],4.95 µM
same,GI50,[55],12.6 µM
same,TGI,[55],36.9 µM
same,GI50,[56],1960 nM
same,TGI,[56],3.95 µM
same,GI50,[57],2460 nM
same,TGI,[57],6.16 µM
